This is an account of results in patent publication US11192891B2, “Diazaspiro ROCK inhibitors” (BRISTOL-MYERS SQUIBB COMPANY, priority 2017, dated 2021).

ROCK2, sequence (O75116 whole entry, species assumed): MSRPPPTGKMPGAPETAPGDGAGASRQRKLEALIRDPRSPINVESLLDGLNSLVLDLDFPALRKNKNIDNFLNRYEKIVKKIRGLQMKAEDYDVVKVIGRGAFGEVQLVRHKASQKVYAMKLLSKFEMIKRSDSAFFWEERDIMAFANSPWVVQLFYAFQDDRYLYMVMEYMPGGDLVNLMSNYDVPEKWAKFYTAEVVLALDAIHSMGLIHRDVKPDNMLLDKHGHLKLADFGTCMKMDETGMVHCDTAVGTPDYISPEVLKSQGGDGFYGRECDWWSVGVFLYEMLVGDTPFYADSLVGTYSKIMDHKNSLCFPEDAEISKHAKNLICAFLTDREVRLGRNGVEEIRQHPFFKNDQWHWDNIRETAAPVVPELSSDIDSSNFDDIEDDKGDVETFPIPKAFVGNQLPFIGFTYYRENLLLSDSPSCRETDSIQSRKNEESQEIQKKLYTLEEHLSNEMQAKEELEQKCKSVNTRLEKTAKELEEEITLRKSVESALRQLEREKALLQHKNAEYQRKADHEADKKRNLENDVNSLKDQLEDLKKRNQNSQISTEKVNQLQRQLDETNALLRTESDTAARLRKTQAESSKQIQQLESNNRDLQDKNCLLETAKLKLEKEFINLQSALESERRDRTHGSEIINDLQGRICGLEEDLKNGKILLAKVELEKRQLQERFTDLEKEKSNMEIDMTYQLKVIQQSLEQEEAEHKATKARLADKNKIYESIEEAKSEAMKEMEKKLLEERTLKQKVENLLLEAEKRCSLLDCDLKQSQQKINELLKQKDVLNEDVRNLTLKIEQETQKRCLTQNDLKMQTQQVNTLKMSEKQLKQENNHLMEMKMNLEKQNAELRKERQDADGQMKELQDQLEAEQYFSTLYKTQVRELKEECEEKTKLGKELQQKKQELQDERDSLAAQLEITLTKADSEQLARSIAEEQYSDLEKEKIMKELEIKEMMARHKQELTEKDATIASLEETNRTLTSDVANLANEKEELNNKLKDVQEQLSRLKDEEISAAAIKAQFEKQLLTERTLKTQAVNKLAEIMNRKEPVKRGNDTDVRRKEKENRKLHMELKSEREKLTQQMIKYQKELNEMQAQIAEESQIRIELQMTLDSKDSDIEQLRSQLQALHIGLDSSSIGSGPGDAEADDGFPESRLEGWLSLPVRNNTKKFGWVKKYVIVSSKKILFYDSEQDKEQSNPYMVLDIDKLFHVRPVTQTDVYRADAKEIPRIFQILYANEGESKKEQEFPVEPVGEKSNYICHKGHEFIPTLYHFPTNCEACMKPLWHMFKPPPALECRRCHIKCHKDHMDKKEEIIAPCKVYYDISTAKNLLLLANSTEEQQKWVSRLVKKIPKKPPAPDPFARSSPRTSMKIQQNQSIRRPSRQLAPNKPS

The target of this assay is ROCK2 (Homo sapiens, UniProt O75116). Nature of the assay: ROCK kinase inhibition assay, FITC peptide substrate, LABCHIP 3000 readout. Format: biochemical. As to conditions: 5 μM ATP, 1.5 μM peptide substrate. The method, then:
Compounds were dissolved in DMSO so that the final concentration of DMSO was <2%, and the reaction was initiated with Rho kinase variants. After incubation, the reaction was terminated by the addition of EDTA and the phosphorylated and non-phosphorylated peptides separated using a LABCHIP® 3000 Reader (Caliper Life Sciences). […] Compounds were tested in dose-response format, and the inhibition of kinase activity was calculated at each concentration of compound.
`COc1cc(N2CCC3(CCN(C(=O)c4ccc5c(c4)OCO5)CC3)C2=O)ccc1-c1cn[nH]c1` [Example 69, 8-(2H-1,3-benzodioxole-5-carbonyl)-2-[3-methoxy-4-(1H-pyrazol-4-yl)phenyl]-2,8-diazaspiro[4.5]decan-1-one] returned an IC50 of 0.093 µM.
With `COc1cc(N2CCC3(CCN(C(=O)c4cc5ccccc5o4)CC3)C2=O)ccc1-c1cn[nH]c1` [Example 70, 8-(1-benzofuran-2-carbonyl)-2-[3-methoxy-4-(1H-pyrazol-4-yl)phenyl]-2,8-diazaspiro[4.5]decan-1-one] the figure was 0.529 µM; with `COc1cc(N2CCC3(CCN(C(=O)c4cnccn4)CC3)C2=O)ccc1-c1cn[nH]c1` [Example 71, 2-[3-methoxy-4-(1H-pyrazol-4-yl)phenyl]-8-(pyrazine-2-carbonyl)-2,8-diazaspiro[4.5]decan-1-one], 0.289 µM.
The compound `COc1cc(N2CCC3(CCN(C(=O)c4ccc(C)nc4)CC3)C2=O)ccc1-c1cn[nH]c1` [Example 72, 2-[3-methoxy-4-(1H-pyrazol-4-yl)phenyl]-8-(6-methylpyridine-3-carbonyl)-2,8-diazaspiro[4.5]decan-1-one] displayed an IC50 of 0.219 µM. This IC50 and that of the compound before are within 1.5-fold of each other.
With `COc1cc(N2CCC3(CCN(C(=O)c4cccnc4)CC3)C2=O)ccc1-c1cn[nH]c1` [Example 73, 2-[3-methoxy-4-(1H-pyrazol-4-yl)phenyl]-8-(pyridine-3-carbonyl)-2,8-diazaspiro[4.5]decan-1-one] the figure was 0.414 µM; with `COc1cc(N2CCC3(CCN(C(=O)c4cnc5ccccc5c4)CC3)C2=O)ccc1-c1cn[nH]c1` [Example 74, 2-[3-methoxy-4-(1H-pyrazol-4-yl)phenyl]-8-(quinoline-3-carbonyl)-2,8-diazaspiro[4.5]decan-1-one], 0.078 µM; with `COc1cc(N2CCC3(CCN(C(=O)c4ccc(Cl)cc4F)CC3)C2=O)ccc1-c1cn[nH]c1` [Example 75, 8-(4-chloro-2-fluorobenzoyl)-2-[3-methoxy-4-(1H-pyrazol-4-yl)phenyl]-2,8-diazaspiro[4.5]decan-1-one], 0.05 µM.
Take `COc1cc(N2CCC3(CCN(C(=O)c4cc5ccccc5s4)CC3)C2=O)ccc1-c1cn[nH]c1` [Example 76, 8-(1-benzothiphene-2-carbonyl)-2-[3-methoxy-4-(1H-pyrazol-4-yl)phenyl]-2,8-diazaspiro[4.5]decan-1-one]: 0.027 µM corresponded to half-maximal inhibition (IC50). This IC50 lies about 1.9-fold lower than the previous one.
The value for `COc1cc(N2CCC3(CCN(C(=O)c4csnn4)CC3)C2=O)ccc1-c1cn[nH]c1` [Example 77, 2-[3-methoxy-4-(1H-pyrazol-4-yl)phenyl]-8-(1,2,3-thiadiazole-4-carbonyl)-2,8-diazaspiro[4.5]decan-1-one] was 0.453 µM; that for `COc1cc(N2CCC3(CCN(C(=O)c4csc(-c5cccnc5)n4)CC3)C2=O)ccc1-c1cn[nH]c1` [Example 78, 2-[3-methoxy-4-(1H-pyrazol-4-yl)phenyl]-8-[2-(pyridin-3-yl)-1,3-thiazole-4-carbonyl]-2,8-diazaspiro[4.5]decan-1-one] was 0.076 µM; that for `COc1cc(N2CCC3(CCN(C(=O)c4cnc(C)cn4)CC3)C2=O)ccc1-c1cn[nH]c1` [Example 79, 2-[3-methoxy-4-(1H-pyrazol-4-yl)phenyl]-8-(5-methylpyrazine-2-carbonyl)-2,8-diazaspiro[4.5]decan-1-one] was 0.11 µM.
With `COc1ccc(C(=O)N2CCC3(CC2)CCN(c2ccc(-c4cn[nH]c4)c(OC)c2)C3=O)c(OC)n1` [Example 80, 8-(2,6-dimethoxypyridine-3-carbonyl)-2-[3-methoxy-4-(1H-pyrazol-4-yl)phenyl]-2,8-diazaspiro[4.5]decan-1-one] the figure was 0.099 µM.
With `COc1cc(N2CCC3(CCN(C(=O)c4cnc5n(c4=O)CCS5)CC3)C2=O)ccc1-c1cn[nH]c1` [Example 81, 2-[3-methoxy-4-(1H-pyrazol-4-yl)phenyl]-8-{5-oxo-2H,3H,5H-[1,3]thiazolo[3,2-a]pyrimidine-6-carbonyl}-2,8-diazaspiro[4.5]decan-1-one] the figure was 0.057 µM; with `COc1cc(N2CCC3(CCN(C(=O)c4cc(C)cs4)CC3)C2=O)ccc1-c1cn[nH]c1` [Example 82, 2-[3-methoxy-4-(1H-pyrazol-4-yl)phenyl]-8-(4-methylthiophene-2-carbonyl)-2,8-diazaspiro[4.5]decan-1-one], 0.109 µM; with `COc1cc(N2CCC3(CCN(C(=O)c4ccc5ncsc5c4)CC3)C2=O)ccc1-c1cn[nH]c1` [Example 83], 0.026 µM.
The compound `COc1cc(N2CCC3(CCN(C(=O)c4csc(-c5ccccc5)n4)CC3)C2=O)ccc1-c1cn[nH]c1` [Example 84, 2-[3-methoxy-4-(1H-pyrazol-4-yl)phenyl]-8-(2-phenyl-1,3-thiazole-4-carbonyl)-2,8-diazaspiro[4.5]decan-1-one] registered an IC50 of 0.138 µM.
`COc1cc(N2CCC3(CCN(C(=O)c4ccc(-c5ccccc5)o4)CC3)C2=O)ccc1-c1cn[nH]c1` [Example 85, 2-[3-methoxy-4-(1H-pyrazol-4-yl)phenyl]-8-(5-phenylfuran-2-carbonyl)-2,8-diazaspiro[4.5]decan-1-one]: the half-maximal inhibitory concentration (IC50) came out at 0.851 µM.
The value for `COc1cc(N2CCC3(CCN(C(=O)c4cscn4)CC3)C2=O)ccc1-c1cn[nH]c1` [Example 86, 2-[3-methoxy-4-(1H-pyrazol-4-yl)phenyl]-8-(1,3-thiazole-4-carbonyl)-2,8-diazaspiro[4.5]decan-1-one] was 0.443 µM; that for `COc1cc(N2CCC3(CCN(C(=O)c4ccc(C(F)(F)F)nc4)CC3)C2=O)ccc1-c1cn[nH]c1` [Example 87, 2-[3-methoxy-4-(1H-pyrazol-4-yl)phenyl]-8-[6-(trifluoromethyl)pyridine-3-carbonyl]-2,8-diazaspiro[4.5]decan-1-one] was 0.557 µM; that for `COc1cc(N2CCC3(CCN(C(=O)c4ccc(NC(C)=O)cc4)CC3)C2=O)ccc1-c1cn[nH]c1` [Example 88, N-(4-{2-[3-methoxy-4-(1H-pyrazol-4-yl)phenyl]-1-oxo-2,8-diazaspiro[4.5]decane-8-carbonyl}phenyl)acetamide] was 0.073 µM.
With `COc1cc(N2CCC3(CCN(C(=O)c4cccs4)CC3)C2=O)ccc1-c1cn[nH]c1` [Example 89, 2-[3-methoxy-4-(1H-pyrazol-4-yl)phenyl]-8-(thiophene-2-carbonyl)-2,8-diazaspiro[4.5]decan-1-one] the figure was 0.117 µM; with `COc1cc(N2CCC3(CCN(C(=O)c4ncc(OC)c5ccccc45)CC3)C2=O)ccc1-c1cn[nH]c1` [Example 90, 2-[3-methoxy-4-(1H-pyrazol-4-yl)phenyl]-8-(4-methoxyisoquinoline-1-carbonyl)-2,8-diazaspiro[4.5]decan-1-one], 0.127 µM.
In turn, `COc1cc(N2CCC3(CCN(C(=O)[C@@H]4C[C@H]4c4ccccc4)CC3)C2=O)ccc1-c1cn[nH]c1` [Example 91, 2-[3-methoxy-4-(1H-pyrazol-4-yl)phenyl]-8-[(1R,2R)-2-phenylcyclopropanecarbonyl]-2,8-diazaspiro[4.5]decan-1-one] gave an IC50 of 0.436 µM. This IC50 is about 3.4-fold higher than that of the compound before.
With `COc1cc(N2CCC3(CCN(C(=O)c4ccc(C(C)C)cc4)CC3)C2=O)ccc1-c1cn[nH]c1` [Example 92, 2-[3-methoxy-4-(1H-pyrazol-4-yl)phenyl]-8-[4-(propan-2-yl)benzoyl]-2,8-diazaspiro[4.5]decan-1-one] the figure was 0.012 µM; with `COc1cc(N2CCC3(CCN(C(=O)c4cc5ncc(Br)cn5n4)CC3)C2=O)ccc1-c1cn[nH]c1` [Example 93, 8-{6-bromopyrazolo[1,5-a]pyrimidine-2-carbonyl}-2-[3-methoxy-4-(1H-pyrazol-4-yl)phenyl]-2,8-diazaspiro[4.5]decan-1-one], 0.005 µM.
With `COc1cc(N2CCC3(CCN(C(=O)c4ccc(N5CCOCC5)cc4)CC3)C2=O)ccc1-c1cn[nH]c1` [Example 94, 2-[3-methoxy-4-(1H-pyrazol-4-yl)phenyl]-8-[4-(morpholin-4-yl)benzoyl]-2,8-diazaspiro[4.5]decan-1-one] the figure was 0.002 µM.
The value for `COc1cc(N2CCC3(CCN(C(=O)c4ccc(-n5ccnc5)cc4)CC3)C2=O)ccc1-c1cn[nH]c1` [Example 95, 8-[4-(1H-imidazol-1-yl)benzoyl]-2-[3-methoxy-4-(1H-pyrazol-4-yl)phenyl]-2,8-diazaspiro[4.5]decan-1-one] was 0.013 µM.
Compound `COc1cc(N2CCC3(CCN(C(=O)c4cc[n+]([O-])cc4)CC3)C2=O)ccc1-c1cn[nH]c1` [Example 96, 4-{2-[3-methoxy-4-(1H-pyrazol-4-yl)phenyl]-1-oxo-2,8-diazaspiro[4.5]decane-8-carbonyl}pyridin-1-ium-1-olate] came in with an IC50 of 1.1 µM.
The value for `COc1cc(N2CCC3(CCN(C(=O)c4ccno4)CC3)C2=O)ccc1-c1cn[nH]c1` [Example 97, 2-[3-methoxy-4-(1H-pyrazol-4-yl)phenyl]-8-(1,2-oxazole-5-carbonyl)-2,8-diazaspiro[4.5]decan-1-one] was 0.427 µM; that for `COc1cc(N2CCC3(CCN(C(=O)c4ccc(C(F)(F)F)cn4)CC3)C2=O)ccc1-c1cn[nH]c1` [Example 98, 2-[3-methoxy-4-(1H-pyrazol-4-yl)phenyl]-8-[5-(trifluoromethyl)pyridine-2-carbonyl]-2,8-diazaspiro[4.5]decan-1-one] was 0.259 µM.
The value for `COc1ncc(C(=O)N2CCC3(CC2)CCN(c2ccc(-c4cn[nH]c4)c(OC)c2)C3=O)cn1` [Example 99, 2-[3-methoxy-4-(1H-pyrazol-4-yl)phenyl]-8-(2-methoxypyrimidine-5-carbonyl)-2,8-diazaspiro[4.5]decan-1-one] was 0.464 µM; that for `COc1cc(N2CCC3(CCN(C(=O)c4cc(C5CC5)on4)CC3)C2=O)ccc1-c1cn[nH]c1` [Example 100, 8-(5-cyclopropyl-1,2-oxazole-3-carbonyl)-2-[3-methoxy-4-(1H-pyrazol-4-yl)phenyl]-2,8-diazaspiro[4.5]decan-1-one] was 0.006 µM.

As usually defined, the IC50 is the concentration that inhibits the measured activity by half. Read a high IC50 as weaker potency.
